Experimental data from patent US7354904B2, “Bacteriocin inducer peptides” (priority 2005, dated 2008).

Experiments:
[1] = Isoelectric point by isoelectrofocusing; type: physicochemical
Description: (§1) FIGS. 1A and 1B are photographs showing the direct detection of signal peptide and bacteriocin OR-7 after SDS-PAGE (A) and isoelectrofocusing (B). […] In FIG. 1A Lane 1-Molecular Mass Markers LMW Range 2,100-12,500 (Amersham Pharmacia Biotech): 2,100; 5,780; 8,400; 12,500 Da. […] Lane 3 contained pI standards (Protein Test Mixture, I Marker Proteins, Serva): 10.0, 9.2, 8.1, 6.9, 5.5, 4.3.
(§2) FIGS. 2A and 2B are photographs showing direct detection of signal peptide and bacteriocin 50-52 after SDS-PAGE (A) and isoelectrofocusing (B). […] Lane 3 contained pI standards (Protein Test Mixture, I Marker Proteins, Serva): 10.0, 8.1, 7.9, 6.4, 5.5, 4.3, 4.1, and 3.8.
(§3) FIGS. 3A and 3B are photographs showing the direct detection of signal peptide and bacteriocin 760 after SDS-PAGE(A) and isoelectrofocusing (B). […] Lane 3 contained pI standards (Protein Test Mixture, I Marker Proteins, Serva): 10.0, 8.1, 7.9, 6.4, 5.5, 4.3, 4.1, and 3.8.
At the end of 14 hours the supernatant from the cultures was placed into 500 ml centrifuge flasks with about one milliliter of regenerated Sepharose SP Fast Flow (v/v 500: 1). This was incubated for approximately 1 hour at room temperature with stirring. The suspension was then washed with about 100 ml of a 0.2 M TRIS-HCl buffer pH approximately 6.4. The bacteriocins were eluted by centrifugation with about 100 ml of approximately 0.2 M K2HPO4, pH of about 5.8 at about 7,000×g for approximately 10 minutes. Antagonistic activity of the bacteriocin fractions against C. jejuni and S. enteritidis was assessed using a Spot Test as described above. The level of purity of the bacteriocin fractions was determined by SDS-PAGE. The isoelectric points of the fractions were determined by isoelectric focusing. Concentrations of protein for all bacteriocin fractions were determined at 215 nm using a spectrophotometer.

[2] = test system: Campylobacter jejuni; test: Direct detection of antimicrobial activity: SDS-PAGE / isoelectrofocusing gel overlaid with Campylobacter jejuni; type: cell-based
Description: as §1, §2, §3

[3] = test system: Streptococcus cricetus LWP 760; test: Influence of signal peptide on bacteriocin 760 production, flask culture (fraction protein at 215 nm, activity by Spot Test against C. jejuni and S. enteritidis); type: cell-based
[4] = test system: C. jejuni; test: Spot Test, antagonistic activity of isolated signal peptides; type: cell-based, Campylobacter jejuni; conditions: isolated signal peptide
Description: (§4) The antagonistic activity of the bacteriocins produced when using the signal peptide and an inducer strain of bacteria against C. jejuni and S. enteritidis was assessed using a Spot Test. The steps included taking various concentrations of pure preparation (μg/ml) of the bacteriocin in approximately 10 microliters of volume plated onto blood-supplemented Campylobacter agar or Nutrient agar (MPA or Meta Peptone Agar) previously seeded with cells of target bacteria. Plates containing cultures of C. jejuni were grown at about 42° C., under microaerobic conditions. Plates containing S. enteritidis were grown at about 37° C. under aerobic conditions. Activity of the bacteriocin was expressed in arbitrary units (AU) per one milliliter of the preparation at which a visible zone of inhibition of the growth of culture appears (Henderson et al., Archives of Biochemistry and Biophysics, Volume 295, 5-12, 1992; herein incorporated by reference). Specific activity can also expressed as arbitrary units per milligram of pure bacteriocin.
(§5) Its activity was about 200 AU/ml and its molecular weight was about 2.5 kDa, as determined by SDS-PAGE electrophoresis. The isoelectric point (pI) was about 7.9 (FIGS. 1A and 1B).
(§6) Its molecular weight was about 3.1 kDa as measured by SDS-PAGE and the isoelectric point (pI) was about 8.1 (FIGS. 2A and 2B).
(§7) Its molecular weight was about 2.1 kDa as determined by SDS-PAGE electrophoresis and its isoelectric point was about 8.9 (FIGS. 3A and 3B).

[5] = test system: Lactobacillus salivarius PVD-32; test: Bacteriocin OR-7 production with signal peptide under scaled up conditions (bioreactor); type: cell-based; conditions: V-61 reactor, 10% Brucella Broth, PVD-32, LWP252, peptide 0.2 mg, pH 6.9, 37° C., 14 hours
[6] = test system: Lactobacillus salivarius PVD-32; test: Influence of signal peptide on bacteriocin OR-7 production, flask culture (fraction protein at 215 nm, activity by Spot Test against C. jejuni and S. enteritidis); type: cell-based; conditions: for Activity / Protein Concentration / Protein increase vs. Control / Specific Activity / mg protein/liter: 10% B-B
[7] = test system: Enterococcus faecium LWP 50-52; test: Influence of signal peptide on bacteriocin 50-52 production, flask culture (fraction protein at 215 nm, activity by spot-test against C. jejuni and S. enteritidis); type: cell-based
[8] = test system: S. enteritidis; test: Spot Test, antagonistic activity of isolated signal peptides; type: cell-based; conditions: isolated signal peptide
Description: as §4, §5, §6, §7

[9] = LWP 760 + LWP320, 0.1 mg PVD 32 peptide
[10] = producer PVD32, no inducer, peptide 0.1 mg
[11] = producer PVD-32 + inducer LWP-252, peptide 0.001 mg
[12] = producer PVD-32 + inducer LWP-252, peptide 0.01 mg
[13] = producer PVD-32 + inducer LWP-252, peptide 0.1 mg
[14] = producer PVD-32, no inducer, peptide 0.001 mg
[15] = producer PVD-32, no inducer, peptide 0.01 mg
[16] = LWP 50-52 + LWP 320, PVD-32 peptide 0.1 mg/ml

Molecule: KTYYGTNGVHCTKNSLWGKVRLKNMKYDQNTTYMGRLQDILLGWATGAFGKTH (listed as Lactobacillus salivarius) [bacteriocin OR-7, bacteriocin produced by Lactobacillus salivarius PVD-32]
- isoelectric point (pI) [1]: about 8.4
- antimicrobial activity of band (zone of growth inhibition) [2]: corresponds to the antimicrobial activity

Molecule: MVTKSLVLAWVVALLACGMVKGLT (listed as Lactobacillus salivarius) [PVD-32 Signal Peptide, signal peptide isolated from Lactobacillus salivarius PVD-32, stimulates bacteriocin OR-7 production]
- Activity [3, 9]: 1,638,840 AU/ml
- Increase in amount of protein vs. control [3, 9]: 1
- Protein Concentration [3, 9]: 0.30 mg/mL
- Protein Produced from 1 liter Culture Fluid [3, 9]: 99 mg
- Specific Activity [3, 9]: 5,462,666 Au/mg
- yield of bacteriocin 760 versus control ([3]; signal peptide of another strain added to LWP 760 + LWP 320): did not increase
- Activity [4]: about 200 AU/ml
- antagonistic activity [4]: weak antagonistic activity
- Activity [5]: 3,276,800 AU/ml
- Amount of Protein produced in One liter [5]: 225 mg
- Concentration of Protein [5]: 1.5 mg/mL
- Increase in amount of protein vs. control [5]: 3
- Specific Activity [5]: 2,184,533 AU/mg
- Activity [6, 10]: 102,400 AU/ml
- Protein Concentration [6, 10]: 0.18 Mg/ml
- Protein increase vs. Control [6, 10]: 0.9
- Specific Activity [6, 10]: 568,888 AU/mg
- mg protein/liter [6, 10]: 59.4 mg protein/liter
- Activity [6, 11]: 409,600 AU/ml
- Protein Concentration [6, 11]: 0.22 Mg/ml
- Protein increase vs. Control [6, 11]: 1.1
- Specific Activity [6, 11]: 1,861,818 AU/mg
- mg protein/liter [6, 11]: 72.6 mg protein/liter
- Activity [6, 12]: 1,638,400 AU/ml
- Protein Concentration [6, 12]: 0.65 Mg/ml
- Protein increase vs. Control [6, 12]: 3.25
- Specific Activity [6, 12]: 2,520,615 AU/mg
- mg protein/liter [6, 12]: 214.5 mg protein/liter
- mg protein/liter ([6]; producer PVD-32 + inducer LWP-252, peptide 0.01 mg, listed as signal peptide from PVD-32): about 214.5 mg protein/liter
- Activity [6, 13]: 409,600 AU/ml
- Protein Concentration [6, 13]: 0.22 Mg/ml
- Protein increase vs. Control [6, 13]: 1.1
- Specific Activity [6, 13]: 1,861,818 AU/mg
- mg protein/liter [6, 13]: 72.6 mg protein/liter
- Activity [6, 14]: 204,800 AU/ml
- Protein Concentration [6, 14]: 0.2 Mg/ml
- Protein increase vs. Control [6, 14]: 1
- Specific Activity [6, 14]: 1,024,000 AU/mg
- mg protein/liter [6, 14]: 66 mg protein/liter
- Activity [6, 15]: 204,800 AU/ml
- Protein Concentration [6, 15]: 0.2 Mg/ml
- Protein increase vs. Control [6, 15]: 1
- Specific Activity [6, 15]: 1,024,000 AU/mg
- mg protein/liter [6, 15]: 66 mg protein/liter
- production of bacteriocin OR-7 per liter of culture fluid ([6]; simultaneous culture of PVD-32 and LWP-252 with signal peptide (flask and bioreactor)): 214-225 milligrams
- isoelectric point (pI) [1]: about 7.9
- Activity [7, 16]: 819,200 AU/ml
- Protein Concentration [7, 16]: 0.25 mg/mL
- Protein increase vs. Control [7, 16]: 1
- Specific Activity [7, 16]: 3,276,800 AU/mg
- mg protein/liter [7, 16]: 82.5 mg protein/liter
- yield of bacteriocin 50-52 versus the control ([7]; signal peptide of another strain added to LWP 50-52 + LWP 320): did not increase
- Activity [8]: about 200 AU/ml
- antagonistic activity [8]: weak antagonistic activity

Molecule: TTKNYGNGVCNSVNWCQCGNVWASCNLATGCAAWLCKLA (listed as Enterococcus faecium) [bacteriocin 50-52, bacteriocin produced by Enterococcus faecium LWP 50-52]
- isoelectric point (pI) [1]: about 8.4
- antimicrobial activity of band (zone of growth inhibition) [2]: corresponds to the antimicrobial activity

B1: NRWYCNSAAGGVGGAAVCGLAGYVGEAKENIAGEVRKGWGMAGGFTHNKACKSFPGSGWASG (protein, listed as Streptococcus cricetus)
chain: NRWYCNSAAGGVGGAAVCGLAGYVGEAKENIAGEVRKGWGMAGGFTHNKACKSFPGSGWASG
notes: bacteriocin produced by Streptococcus cricetus LWP 760
- isoelectric point (pI) [1]: about 9.5
- antimicrobial activity of band (zone of growth inhibition) [2]: corresponds to the antimicrobial activity
